Data reported in ChEMBL document CHEMBL1201862, “PubChem BioAssay data set” (2004).
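1) Cells in 96-well plates. 2) Compound, 48 h, 5 concentrations. 3) Linear interpolation between surrounding doses. 4) Unreached endpoint = highest concentration. Here, GI50 denotes the concentration required for 50% inhibition of growth.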 Active and inactive are the calls of the source. No stated cut-off is given here; in the data, active = GI50 up to about 1.1 µM and inactive = higher.

Columns and labels:
Assay in all cases: DTP human tumour cell line panel, 48 h
A549 = system: A549
ACHN = system: ACHN
CCRF-CEM = system: CCRF-CEM
KM12 = system: KM12
NCI-H460 = system: NCI-H460
OVCAR-8 = system: OVCAR-8
RPMI-8226 = system: RPMI-8226
SF-268 = system: SF-268
SF-539 = system: SF-539
SK-MEL-28 = system: SK-MEL-28
SN12C = system: SN12C
SNB-19 = system: SNB-19
SW-620 = system: SW-620
TK-10 = system: TK-10
U-251 = system: U-251
UO-31 = system: UO-31
MDA-MB-231 = system: MDA-MB-231
MDA-MB-435 = system: MDA-MB-435
NCI/ADR-RES = system: NCI/ADR-RES

Row | SMILES | GI50 (A549) | GI50 (ACHN) | GI50 (CCRF-CEM) | GI50 (KM12) | GI50 (NCI-H460) | GI50 (OVCAR-8) | GI50 (RPMI-8226) | GI50 (SF-268) | GI50 (SF-539) | GI50 (SK-MEL-28) | GI50 (SN12C) | GI50 (SNB-19) | GI50 (SW-620) | GI50 (TK-10) | GI50 (U-251) | GI50 (UO-31) | GI50 (MDA-MB-231) | GI50 (MDA-MB-435) | GI50 (NCI/ADR-RES)
1 | CCN(CC)c1ccc(C(=O)c2ccccc2C(=O)O)c(O)c1 | > 100 µM (inactive) | > 100 µM (inactive) | > 100 µM (inactive) | > 100 µM (inactive) | > 100 µM (inactive) | > 100 µM (inactive) | > 100 µM (inactive) | > 100 µM (inactive) | > 100 µM (inactive) | > 100 µM (inactive) | > 100 µM (inactive) | > 100 µM (inactive) | > 100 µM (inactive) | > 100 µM (inactive) | > 100 µM (inactive) | > 100 µM (inactive) |  |  | 
2 | CC(=O)Nc1ccc2nc(-c3ccccn3)c(-c3ccccn3)nc2c1 | > 100 µM (inactive) | > 100 µM (inactive) | > 100 µM (inactive) | > 100 µM (inactive) | > 100 µM (inactive) | > 100 µM (inactive) | > 100 µM (inactive) | > 100 µM (inactive) | > 100 µM (inactive) | > 100 µM (inactive) | > 100 µM (inactive) | > 100 µM (inactive) | > 100 µM (inactive) | > 100 µM (inactive) | > 100 µM (inactive) | > 100 µM (inactive) | > 100 µM (inactive) | > 100 µM (inactive) | > 100 µM (inactive)
3 | CN(C)C(CN)CC1=C(CC(CN)N(C)C)CCC1 (stereo unspecified) | > 100 µM (inactive) |  | > 100 µM (inactive) | > 100 µM (inactive) | > 100 µM (inactive) | > 100 µM (inactive) | > 100 µM (inactive) | > 100 µM (inactive) | > 100 µM (inactive) | > 100 µM (inactive) | > 100 µM (inactive) | > 100 µM (inactive) | > 100 µM (inactive) |  | > 100 µM (inactive) | > 100 µM (inactive) |  |  | > 100 µM (inactive)
4 | CC(C)OC(=O)C1=C2c3ncccc3C(=O)N2[C@@H](Cl)[C@H](Cl)[C@H]1Cl | > 100 µM (inactive) | > 100 µM (inactive) |  | > 100 µM (inactive) | > 100 µM (inactive) | 31.7 µM (inactive) | 21.8 µM (inactive) | 47.9 µM (inactive) | > 100 µM (inactive) | > 100 µM (inactive) | 21.8 µM (inactive) | > 100 µM (inactive) | 34.6 µM (inactive) | > 100 µM (inactive) | 56.8 µM (inactive) | > 100 µM (inactive) | > 100 µM (inactive) | 81.1 µM (inactive) | > 100 µM (inactive)
5 | O=C(Nc1nccs1)c1cc(C2=CC=CC([N+](=O)[O-])C=C2)nc(S)n1 (stereo unspecified) | > 100 µM (inactive) | > 100 µM (inactive) | > 100 µM (inactive) | > 100 µM (inactive) | > 100 µM (inactive) | > 100 µM (inactive) | > 100 µM (inactive) | > 100 µM (inactive) | > 100 µM (inactive) | > 100 µM (inactive) | > 100 µM (inactive) | > 100 µM (inactive) | > 100 µM (inactive) | > 100 µM (inactive) | > 100 µM (inactive) | > 100 µM (inactive) |  |  | 
6 | CCCNCCCC(NC(C)=O)C(=O)NCc1ccccc1 (stereo unspecified) | > 100 µM (inactive) | > 100 µM (inactive) | > 100 µM (inactive) | > 100 µM (inactive) | > 100 µM (inactive) | > 100 µM (inactive) | > 100 µM (inactive) | > 100 µM (inactive) | > 100 µM (inactive) | > 100 µM (inactive) | > 100 µM (inactive) | > 100 µM (inactive) | > 100 µM (inactive) | > 100 µM (inactive) | > 100 µM (inactive) | > 100 µM (inactive) |  |  | 
7 | COc1cc2c(cc1OC)C(Cc1c3ccccc3cc3ccccc13)N(C)CC2 (stereo unspecified) | 39.8 µM (inactive) |  | 18.8 µM (inactive) | 16.3 µM (inactive) | 20 µM (inactive) | 26.5 µM (inactive) | 13.9 µM (inactive) | 29 µM (inactive) | 19.5 µM (inactive) | 20.2 µM (inactive) | 42 µM (inactive) | 22.2 µM (inactive) | 27 µM (inactive) |  | 16.9 µM (inactive) | 13 µM (inactive) |  |  | 24.7 µM (inactive)
8 | C#Cc1cc(CN(CC(=O)OC(C)(C)C)CC(=O)OC(C)(C)C)nc(CN(CC(=O)OC(C)(C)C)CC(=O)OC(C)(C)C)c1 | 7.85 µM (inactive) | 4.84 µM (inactive) | 2.96 µM (inactive) | 3.72 µM (inactive) | 7.23 µM (inactive) | 5.24 µM (inactive) | 2.75 µM (inactive) | 4.8 µM (inactive) | 15.2 µM (inactive) | 7.5 µM (inactive) | 6.75 µM (inactive) | 2.74 µM (inactive) | 4.81 µM (inactive) | 17.3 µM (inactive) | 5.07 µM (inactive) | 3.71 µM (inactive) |  |  | 
9 | CC(C)CCn1nc(N)c2nc3ccccc3nc21 | > 100 µM (inactive) | 41.3 µM (inactive) | 46.2 µM (inactive) | > 100 µM (inactive) | 57 µM (inactive) | > 100 µM (inactive) | > 100 µM (inactive) | > 100 µM (inactive) | > 100 µM (inactive) | > 100 µM (inactive) | > 100 µM (inactive) | > 100 µM (inactive) | 67.6 µM (inactive) | > 100 µM (inactive) | > 100 µM (inactive) | > 100 µM (inactive) |  | > 100 µM (inactive) | > 100 µM (inactive)
10 | CC1=NN(C(=O)c2ccc(Cl)cc2)C(=O)/C1=C/c1ccco1 | > 100 µM (inactive) | > 100 µM (inactive) | > 100 µM (inactive) | > 100 µM (inactive) | > 100 µM (inactive) | > 100 µM (inactive) | > 100 µM (inactive) | > 100 µM (inactive) | > 100 µM (inactive) | > 100 µM (inactive) | > 100 µM (inactive) | > 100 µM (inactive) | > 100 µM (inactive) | > 100 µM (inactive) | > 100 µM (inactive) | > 100 µM (inactive) |  |  | 
11 | COc1ccc(C2CCC(Cl)(OC)CC2C=O)cc1 (stereo unspecified) | 61.5 µM (inactive) | 95.9 µM (inactive) | 29.7 µM (inactive) | > 100 µM (inactive) | > 100 µM (inactive) | 85.1 µM (inactive) | 45.7 µM (inactive) | 21.9 µM (inactive) | 56.4 µM (inactive) | 21 µM (inactive) | > 100 µM (inactive) | 73.6 µM (inactive) | 54.3 µM (inactive) | > 100 µM (inactive) | 43.9 µM (inactive) | 80.4 µM (inactive) |  |  | 
12 | CCCCCCCCCCCCCCCCOCC(CC(F)(F)P(=O)(OCC)OCC)OC(C)=O (stereo unspecified) | 12 µM (inactive) | 13.9 µM (inactive) |  | 11.6 µM (inactive) | 10.7 µM (inactive) |  | 25.1 µM (inactive) | 12.6 µM (inactive) |  | 17.8 µM (inactive) | 19.7 µM (inactive) | 3.21 µM (inactive) | 14.8 µM (inactive) | 14 µM (inactive) | 2.72 µM (inactive) | 16 µM (inactive) | 14.9 µM (inactive) | 18.6 µM (inactive) | 16.3 µM (inactive)
13 | CCOC(=O)/C(O)=C1\C(=O)N(C)C(=O)C1c1ccc(OC)c(OC)c1 (stereo unspecified) | > 100 µM (inactive) |  | > 100 µM (inactive) | > 100 µM (inactive) | > 100 µM (inactive) | > 100 µM (inactive) | > 100 µM (inactive) | > 100 µM (inactive) | > 100 µM (inactive) | > 100 µM (inactive) | > 100 µM (inactive) | > 100 µM (inactive) | > 31.6 µM (inactive) |  | > 100 µM (inactive) | > 100 µM (inactive) |  |  | > 100 µM (inactive)
14 | Cc1ccccc1CN1CC=c2ccccc2=N1 | 93.5 µM (inactive) | > 100 µM (inactive) | > 100 µM (inactive) | > 100 µM (inactive) | > 100 µM (inactive) | > 100 µM (inactive) | > 100 µM (inactive) | > 100 µM (inactive) | > 100 µM (inactive) | > 100 µM (inactive) | > 100 µM (inactive) | > 100 µM (inactive) | > 100 µM (inactive) | > 100 µM (inactive) | > 100 µM (inactive) | 50.1 µM (inactive) |  |  | 
15 | [O-][S+](Nc1ccccc1)c1ccccc1Oc1ccccc1 (stereo unspecified) | 27 µM (inactive) | 46 µM (inactive) | 32.5 µM (inactive) | 18.8 µM (inactive) | 35.3 µM (inactive) | 26.9 µM (inactive) | 43.3 µM (inactive) | 16.3 µM (inactive) | 14.6 µM (inactive) | 33.5 µM (inactive) | 86.7 µM (inactive) | 38.9 µM (inactive) | > 100 µM (inactive) | > 100 µM (inactive) | 22 µM (inactive) | 20.9 µM (inactive) | 36.2 µM (inactive) | 40.8 µM (inactive) | 27.5 µM (inactive)
16 | Nc1ccc(-c2nc3ccc(F)cc3s2)cc1I | > 100 µM (inactive) | > 100 µM (inactive) | > 21.2 µM (inactive) | > 100 µM (inactive) | > 100 µM (inactive) | > 79.4 µM (inactive) | > 100 µM (inactive) | > 63.8 µM (inactive) | 5.9 µM (inactive) | > 100 µM (inactive) | > 100 µM (inactive) | > 61.2 µM (inactive) | > 100 µM (inactive) | < 0.01 µM (active) | > 90.8 µM (inactive) | > 100 µM (inactive) | > 54.2 µM (inactive) | > 100 µM (inactive) | > 31 µM (inactive)
